The values below come from patent publication US20200231562A1, “NOVEL MACROLIDE ANTIBIOTICS” (HELMHOLTZ-ZENTRUM FÜR INFEKTIONSFORSCHUNG GMBH, priority 2014, published 2020).

Data set [1] concerns S. aureus N315 wildtype (WT). The data set is described as follows: Susceptibility (MIC) of S. aureus N315 wildtype. It counts as cell-based. The settings on record: Staphylococcus aureus.
In data set [2] the test system is S. aureus N315 mutant Mt50DscA.1. The data set is described as follows: Susceptibility (MIC) of Disciformycin A-resistant mutant. The data set is classed as cell-based. The settings on record: Staphylococcus aureus.
The subject of data set [3] is S. aureus N315 mutant Mt50DscA.2. The description is as above. It counts as cell-based. To be noted: Staphylococcus aureus.
For data set [4], the system named is S. aureus N315 mutant Mt50DscA.3. Described as above. It counts as cell-based. The settings on record: Staphylococcus aureus.
The test system of data set [5] is S. aureus N315 mutant Mt50DscA.4. The data set is described as above. It counts as cell-based. The settings on record: Staphylococcus aureus.
For data set [6], the system named is S. aureus N315 mutant Mt50DscA.5. The data set is described as above. The data set is classed as cell-based. To be noted: Staphylococcus aureus.
Data set [7] deals with S. aureus N315 mutant Mt50DscA.6. The data set is described as above. The data set is classed as cell-based. The settings on record: Staphylococcus aureus.
Data set [8] has as its system S. aureus N315 mutant Mt50DscA.8. The description is as above. The data set is classed as cell-based. To be noted: Staphylococcus aureus.
Data set [9] has as its system S. aureus N315 Mt50DscA.9. The description is as above. The data set is classed as cell-based. The settings on record: Staphylococcus aureus.
The test system of data set [10] is S. aureus N315 mutant Mt50DscA.10. The description is as above. It counts as cell-based. The settings on record: Staphylococcus aureus.
Data set [11] concerns S. aureus N315 mutant Mt50DscA.11. The description is as above. It counts as cell-based. The settings on record: Staphylococcus aureus.
Data set [12] relates to primary monocytes from human peripheral blood. Briefly: MTT assay, cytotoxic activity. The data set is classed as cell-based. To be noted: incubation 24 or 48 hours. The protocol:
The cytotoxic activity of gulmirecin A (3) and gulmirecin B (4) against human cells was evaluated in the well-established MTT assay using primary monocytes from human peripheral blood as well as transformed lung epithelial cell A-549 cell and leukemic Mono Mac 6 cells. Furthermore, 3 and 4 were tested against K-562, HUVEC, and HeLa cells.
Human primary monocytes were isolated from leukocyte concentrates, obtained from the Institute of Transfusion Medicine at the University Hospital Jena, Germany. The concentrates were prepared from the blood of healthy adult human donors who had not taken any anti-inflammatory medication for the 10 days prior to blood donation, as described. In brief, freshly withdrawn peripheral blood was pretreated with citrate-phosphate-dextrose solution as anticoagulant and processed with the 2C+ protocol of the Atreus Whole Blood Processing System (Terum BCT). Peripheral blood mononuclear cells (PBMC) were isolated by dextran sedimentation and centrifugation on LSM 1077 lymphocyte separation medium (PAA Laboratories). For isolation of monocytes, the PBMC were washed twice with ice-cold phosphate buffered saline (PBS) and plated (density 2×10^7 cells/ml) in culture flasks (Greiner Bio-One) containing PBMC medium (RPMI 1640 medium supplemented with 100 U/ml penicillin, 100 μg/ml streptomycin and 2 mM L-glutamine) for 1.5 hours at 37° C., 5% CO2. Non-adherent cells were removed; adherent monocytes were scraped, washed with ice-cold PBS and resuspended in ice-cold PBS with a purity of >85%, defined by forward- and side-light scatter properties and detection of the CD14 surface molecule by flow cytometry (BD FACS Calibur). […]
Cells (3×10^5 Mono Mac 6, 1×10^5 A-549 cells, or 2×10^6 monocytes per well) were seeded in a 96-well plate in the respective medium (100 μl/well). […] Absorbance of each well was measured at 570 nm in a Multiskan™ microplate spectrophotometer (Thermo Scientific).
(Formazan colour is commonly taken as a measure of viable cells.)

The next data set concerns K-562 cells. The data set is described as follows: Antiproliferative effect (CellTiter-Blue). The data set is classed as cell-based, human. To be noted: K-562, at a concentration of 100 μM. The protocol:
(§1) The human monocytic cell line Mono Mac 6 was cultured in RPMI 1640 medium supplemented with FCS (10%, v/v), penicillin (100 U/ml), streptomycin (100 μg/ml), insulin (10 μg/ml), oxaloacetic acid (1 mM), sodium pyruvate (1 mM), and 1× non-essential amino acids at 37° C. and 5% CO2. A-549 cells (DSM ACC-107) were cultured in DMEM high glucose (4.5 g/l) medium supplemented with FCS (10% v/v), penicillin (100 U/ml) and streptomycin (100 μg/ml) at 37° C. in a 5% CO2 incubator. K-562 (DSM ACC 10) and HeLa cells (DSM ACC 57) were grown in RPMI 1640, whereas cells of HUVEC (ATCC CRL-1730) were cultured in DMEM medium. The respective media were supplemented with ultraglutamine 1 (10 ml/l), gentamicin sulfate (500 μl/l), and FCS (10% v/v).
(§2) The test substances were dissolved in methanol before being diluted in DMEM. The adherent cells were harvested at the logarithmic growth phase after soft trypsinization using 0.25% trypsin in PBS containing 0.02% EDTA. For each experiment, approximately 10,000 cells were seeded with 0.1 ml culture medium per well of the 96-well microplates. […] In case of K-562 cells, the number of viable cells in every well was determined using the CellTiter-Blue1 assay. […] The optical densities were measured at 660 nm in a SUNRISE microplate reader (TECAN).

The test system of another data set is HUVEC cells. Briefly: Antiproliferative effect (methylene blue staining). It counts as cell-based, human. To be noted: at a concentration of 100 μM. As for the experimental part:
as §1, §2

Converted amounts (≈) assume the structure as drawn.

As a reminder, the MIC is the smallest concentration in the dilution series that meets the test's criterion for growth inhibition. As to `C/C=C(/C)[C@H]1C/C=C(\C)[C@@H](O[C@H]2O[C@H](CO)[C@@H](O)[C@@H]2O)[C@H](OC(=O)CC(C)C)C(=O)C/C=C(/C)C(=O)O1` [Compound 1, disciformycin A], the MIC in [1] is 4 µg/mL (≈ 7.62 µM); in data set [2], > 64 µg/mL; in data set [3], > 64 µg/mL; in data set [4] it was > 64 µg/mL; in data set [5], > 64 µg/mL; in data set [6] it was 64 µg/mL (≈ 122 µM). The MIC in data set [7], in data set [8], in data set [9], in data set [10] and in data set [11] was > 64 µg/mL throughout.
For `C/C=C(/C)[C@H]1C/C=C(\C)[C@@H](O[C@H]2O[C@H](CO)[C@@H](O)[C@@H]2O)[C@H](OC(=O)CC(C)C)C(=O)C[C@@H](O)[C@H](C)C(=O)O1` [Compound 3, gulmirecin A], the “cell viability / cytotoxicity (MTT)” value in data set [12] is recorded as “no reduction in cell viability at the concentrations required for antibacterial activity”. Moreover, the inhibition of proliferation entry in the data set on K-562 cells and in the data set with HUVEC cells was “did not inhibit” each time. Also, the MIC in data set [1] is 4 µg/mL (≈ 7.37 µM); in data set [2], > 64 µg/mL; in data set [3] it was > 64 µg/mL; in [4], > 64 µg/mL; in [5] it was > 64 µg/mL; in data set [6], 64 µg/mL (≈ 118 µM). In addition, the MIC in data set [7], in [8], in data set [9], in data set [10] and in [11] was > 64 µg/mL each time.
Regarding `C/C=C(/C)[C@H]1C/C=C(\C)[C@@H](O[C@H]2O[C@H](CO)[C@@H](O)[C@@H]2O)[C@H](O)C(=O)CC[C@H](C)C(=O)O1` [Compound 4, gulmirecin B], the “cell viability / cytotoxicity (MTT)” value in [12] is on record as “no reduction in cell viability at the concentrations required for antibacterial activity”. Moreover, the inhibition of proliferation entry in the data set on K-562 cells and with HUVEC cells was “did not inhibit” in each case. The MIC in [1] is 32 µg/mL (≈ 72.3 µM); in data set [2], > 64 µg/mL; in data set [3], > 64 µg/mL; in data set [4] it was > 64 µg/mL; in data set [5] it was > 64 µg/mL; in [6], > 64 µg/mL. Besides, the minimum inhibitory concentration (MIC) in [7], in data set [8], in [9], in data set [10] and in data set [11] was > 64 µg/mL each time.
